pIC50: −log10 of the molar value. Counter-ions that a name gives are not always drawn.
Assays:
[1] = Physical stability of the crystalline form on exposure to humidity; assay type: physicochemical; conditions: exposed to 75% RH for five days
Experimental: A suspension of 1-(2-(4-ethoxy-6-oxo-1,6-dihydropyridin-3-yl)-4-methylpyrimidin-5-yl)-3-(5-(1,1,1-trifluoro-2-methylpropan-2-yl)isoxazol-3-yl)urea (493.5 mg) in 12.5 mL of acetone was stirred overnight while cycling the temperature between 40° C. and 5° C. Seeds of Compound A free base anhydrate were added at 5° C. The solids were isolated by vacuum filtration and dried overnight in a vacuum oven at 40° C. to give the title compound as a crystalline solid.

[2] = target: T1, Human RET kinase cytoplasmic domain (Homo sapiens, UniProt P07949); assay: RET kinase enzymatic assay; assay type: biochemical
T1 construct: made in house
T1 sequence (P07949 658-1114): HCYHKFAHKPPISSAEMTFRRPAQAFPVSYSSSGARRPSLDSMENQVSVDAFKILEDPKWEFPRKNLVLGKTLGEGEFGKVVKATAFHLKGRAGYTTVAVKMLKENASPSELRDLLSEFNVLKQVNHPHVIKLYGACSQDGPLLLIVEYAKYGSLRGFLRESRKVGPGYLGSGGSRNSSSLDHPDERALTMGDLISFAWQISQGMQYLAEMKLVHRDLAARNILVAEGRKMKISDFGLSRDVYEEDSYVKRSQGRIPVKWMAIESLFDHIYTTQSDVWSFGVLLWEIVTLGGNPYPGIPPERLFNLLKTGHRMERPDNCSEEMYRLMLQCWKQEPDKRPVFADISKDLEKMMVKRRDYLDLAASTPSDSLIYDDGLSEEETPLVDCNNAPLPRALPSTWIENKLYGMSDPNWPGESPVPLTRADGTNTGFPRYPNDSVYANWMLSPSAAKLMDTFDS
How it was run: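 GST-RET, 0.2 nM in 2× enzyme mix (HEPES, CHAPS, BSA, DTT), preincubated with inhibitor 30 min at 23 °C. Reaction for 1 h at 23 °C after adding 2× substrate mix: 20 μM ATP, 20 mM MgCl2, 1 μM biotinylated peptide. Single wells per concentration; IC50 from sigmoidal dose-response fit.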

| Structure (SMILES) | physical stability [1] | pIC50 [2] |
| --- | --- | --- |
| CCOc1cc(=O)[nH]cc1-c1ncc(NC(=O)Nc2cc(C(C)(C)C(F)(F)F)on2)c(C)n1 [Compound A free base anhydrate, 1-(2-(4-Ethoxy-6-oxo-1,6-dihydropyridin-3-yl)-4-methylpyrimidin-5-yl)-3-(5-(1,1,1-trifluoro-2-methylpropan-2-yl)isoxazol-3-yl)urea] | physically stable | – |
| CCOc1cc(=O)[nH]cc1-c1ncc(NC(=O)Nc2cc(C(C)(C)C(F)(F)F)on2)cn1 [Example 180, 1-(2-(4-Ethoxy-6-oxo-1,6-dihydropyridin-3-yl)pyrimidin-5-yl)-3-(5-(1,1,1-trifluoro-2-methylpropan-2-yl)isoxazol-3-yl)urea hydrochloride] | – | > 7.00 |
| CCOc1cc(-c2ncc(NC(=O)Nc3cc(C(C)(C)C(F)(F)F)on3)cn2)c[nH]c1=O [Example 181, 1-(2-(5-Ethoxy-6-oxo-1,6-dihydropyridin-3-yl)pyrimidin-5-yl)-3-(5-(1,1,1-trifluoro-2-methylpropan-2-yl)isoxazol-3-yl)urea hydrochloride] | – | > 7.00 |
| CCN1CCN(Cc2cc(F)c(NC(=O)Nc3cnc(-c4c[nH]c(=O)cc4OCCOC)nc3C)cc2C(F)(F)F)CC1 [Example 182, 1-(4-((4-Ethylpiperazin-1-yl)methyl)-2-fluoro-5-(trifluoromethyl)phenyl)-3-(2-(4-(2-methoxyethoxy)-6-oxo-1,6-dihydropyridin-3-yl)-4-methylpyrimidin-5-yl)urea] | – | > 7.00 |
| CCOc1cc(-c2ncc(NC(=O)Nc3cc(C(F)(F)F)c(CN4CCN(CC)CC4)cc3F)cn2)c[nH]c1=O [Example 183, 1-(2-(5-Ethoxy-6-oxo-1,6-dihydropyridin-3-yl)pyrimidin-5-yl)-3-(4-((4-ethylpiperazin-1-yl)methyl)-2-fluoro-5-(trifluoromethyl)phenyl)urea trihydrochloride] | – | > 7.00 |
| COCCOc1cc(-c2ncc(NC(=O)Nc3cc(C(F)(F)F)c(CN4CCN(C)CC4)cc3F)c(C)n2)c[nH]c1=O [Example 184, 1-(2-Fluoro-4-((4-methylpiperazin-1-yl)methyl)-5-(trifluoromethyl)-phenyl)-3-(2-(5-(2-methoxyethoxy)-6-oxo-1,6-dihydropyridin-3-yl)-4-methylpyrimidin-5-yl)urea trihydrochloride] | – | > 7.00 |
| CCOc1cc(-c2ncc(NC(=O)Nc3ccc(CC(C)(C)N)c(C(F)(F)F)c3)c(C)n2)c[nH]c1=O [Example 185, 1-(4-(2-Amino-2-methylpropyl)-3-(trifluoromethyl)phenyl)-3-(2-(5-ethoxy-6-oxo-1,6-dihydropyridin-3-yl)-4-methylpyrimidin-5-yl)urea] | – | > 7.00 |
| CCOc1cc(=O)[nH]cc1-c1ncc(NC(=O)Nc2ccc(CC(C)(C)N)c(C(F)(F)F)c2)c(C)n1 [Example 186, 1-(4-(2-Amino-2-methylpropyl)-3-(trifluoromethyl)phenyl)-3-(2-(4-ethoxy-6-oxo-1,6-dihydropyridin-3-yl)-4-methylpyrimidin-5-yl)urea] | – | > 7.00 |
| COCCOc1cc(=O)[nH]cc1-c1ncc(NC(=O)Nc2cc(C(=O)NCCN(C)C)cc(C(F)(F)F)c2)c(C)n1 [Example 187, N-(2-(dimethylamino)ethyl)-3-(3-(2-(4-(2-methoxyethoxy)-6-oxo-1,6-dihydropyridin-3-yl)-4-methylpyrimidin-5-yl)ureido)-5-(trifluoromethyl)benzamide] | – | > 7.00 |
| CCOc1cc(-c2ncc(NC(=O)Nc3cc(C(F)(F)F)c(CN(C)C)cc3F)cn2)c[nH]c1=O [Example 188, 1-(4-((Dimethylamino)methyl)-2-fluoro-5-(trifluoromethyl)phenyl)-3-(2-(5-ethoxy-6-oxo-1,6-dihydropyridin-3-yl)pyrimidin-5-yl)urea dihydrochloride] | – | > 7.00 |
| CCOc1cc(-c2ncc(NC(=O)Nc3cc(C(=O)NCCN(C)C)cc(C(F)(F)F)c3)cn2)c[nH]c1=O [Example 189, N-(2-(Dimethylamino)ethyl)-3-(3-(2-(5-ethoxy-6-oxo-1,6-dihydropyridin-3-yl)-pyrimidin-5-yl)ureido)-5-(trifluoromethyl)benzamide] | – | > 7.00 |
| CCOc1cc(-c2ncc(NC(=O)Nc3cc(C(F)(F)F)c(CN(C)C)cc3F)c(C)n2)c[nH]c1=O [Example 190, 1-(4-((Dimethylamino)methyl)-2-fluoro-5-(trifluoromethyl)phenyl)-3-(2-(5-ethoxy-6-oxo-1,6-dihydropyridin-3-yl)-4-methylpyrimidin-5-yl)urea dihydrochloride] | – | > 7.00 |
| CCOc1cc(=O)[nH]cc1-c1ncc(NC(=O)Nc2cc(C(F)(F)F)c(CN3CCN(CC)CC3)cc2F)c(C)n1 [Example 191, 1-(2-(4-Ethoxy-6-oxo-1,6-dihydropyridin-3-yl)-4-methylpyrimidin-5-yl)-3-(4-((4-ethylpiperazin-1-yl)methyl)-2-fluoro-5-(trifluoromethyl)phenyl)urea trihydrochloride] | – | > 7.00 |

Reference: patent publication US10294236B2, “Compounds as rearranged during transfection (RET) inhibitors” (GLAXOSMITHKLINE INTELLECTUAL PROPERTY DEVELOPMENT LIMITED, priority 2014, dated 2019)
